Columns and labels:
[1] = test system: THP-1 cells; assay: Effect of inhibitors on Activin A-induced BAFF expression in THP-1 cells; format: cell-based; settings: THP-1 cells treated with inhibitor and P4N
Procedure: (§1) FIGS. 5A-5F depict the expression of Activin A/BAFF induced by P4N treatments. (A) P4N induced Activin A or BAFF expression in human PBMCs as determined by RT-PCR. S1-S5 display different individual blood samples collected from 5 different human donors; N, no treatment; P, P4N-treatment (3 μM). The change in Activin A and BAFF expression (mean of 5 patients) relative to the control (NC) is plotted as a histogram (B) The effect of increasing dosages of P4N for 12 h on mRNA and protein levels of Activin A or BAFF in THP-1 cells was analyzed by RT-PCR and ELISA. (C) The effect of 6 μM P4N on mRNA and protein levels of Activin A or BAFF in THP-1 cells was determined at a different time period. (D) The effect of different inhibitors on Activin A-induced BAFF expression was examined. The expression of BAFF mRNA in inhibitor-treated THP-1 cells was determined by RT-PCR, and (E) BAFF protein secretion was measured by ELISA. (F) The effect of THP-1 conditioned media on the proliferation of Raji cells and OKT3 hybridoma cells were determined. Media were harvested, in which THP-1 cells were pre-treated without inhibitor (2) or with SB431542 (3), A83-01 (4), SIS3 (5), SB203580 (6) or PD98059 (7) and then treated with P4N for 12 h. The results are expressed as % viable cells relative to the control (NC, media from untreated THP-1 cells). All values are the means of triplicate samples±SEM. The significant differences in the results of inhibitor and P4N-treated groups compared with the untreated group are indicated by ***P<0.001.
Reverse transcription PCR. Human PBMCs or THP-1 cells were treated with P4N, and then the mRNA expression of INHBA and BAFF in these cells was measured by reverse transcription PCR. Briefly, total cellular RNA was extracted with Trizol reagent (Invitrogen) and reverse-transcribed into cDNA using the Superscript RT-kit (Invitrogen). The cDNA of INHBA and BAFF were then amplified by PCR. GAPDH cDNA in the samples was used to normalize the loading amounts in each reaction. Finally, PCR products were resolved by electrophoresis on 2% agarose gels and visualized with ethidium bromide.

[2] = test system: Raji or OKT3 cells; assay: Cell proliferation assay with THP-1-conditioned media; format: cell-based; settings: conditioned medium from THP-1 cells treated with P4N and the inhibitor
Procedure: as §1
Cell proliferation assay. Raji or OKT3 cells (1×10^4/well) were seeded and treated with THP-1-conditioned media. After 48 h the number of viable cells was determined by MTT assay. The indices of cell proliferation were calculated as previously described.

[3] = test system: THP-1 cells; assay: TNF-α, IL-8 and Activin A ELISA in THP-1 cells with bestatin and P4N; format: cell-based; settings: 10 μM bestatin 2 h, then 3 μM P4N
Procedure: FIGS. 6A-6E show P4N directly regulated LTA4H to induce monocyte inflammation. (A) P4N (orange) was docked with LTA4H by iGEMDOCK software (gemdock.life.nctu.edu.tw/dock/igemdock.php). RB3041 (Pink) is a small molecule inhibitor that identifies the active site of LTA4H. The amino acids that potentially interact with P4N are noted. The effects of P4N and bestatin on monocytes and their expression of (B) LTB4, (C) TNF-α, (D) IL-8, or (E) Activin A were determined and shown for different times. All values were expressed as the mean±SEM. **P<0.05, group P4N vs group (P4N+bestatin).
ELISA assays. THP-1 cells (1×10^6 cells/ml/well) in a 24-well culture plate were pretreated with 10 μM bestatin (a LTA4H inhibitor, Sigma-Aldrich) for 2 h and then treated with 3 μM P4N for various time intervals. The levels of LTB4 in the culture media were determined by the LTB4 (Enzo Life Sciences, Farmingdale, N.Y.) (R&D) ELISA Kits. The amount of TNF-α, IL-8 and Activin A in cultured media were measured in a similar manner.

[4] = test system: LTB4 production; settings: reference (32); cited from earlier work

## Cc1cccc(-c2nn(C(=S)Nc3ccccc3)cc2-c2ccnc3ccccc23)n1 [A83-01]
[1]
  BAFF transcription and protein expression: significantly reduced
[2]
  proliferative activity of conditioned medium on Raji or OKT3 cells: lost its activity

## C[S+]([O-])c1ccc(-c2nc(-c3ccncc3)c(-c3ccc(F)cc3)[nH]2)cc1 (centres unmarked) [SB203580]
[1]
  BAFF transcription and protein expression: had fewer effects

## CC(C)C[C@H](NC(=O)[C@@H](O)[C@H](N)Cc1ccccc1)C(=O)O [Bestatin]
[3]
  P4N-induced expression of Activin A: inhibited
  expression of TNF-α and IL-8: not suppressed

## NC(=O)c1ccc(-c2nc(-c3ccc4c(c3)OCO4)c(-c3ccccn3)[nH]2)cc1 [SB431542]
[1]
  BAFF transcription and protein expression: significantly reduced
[2]
  proliferative activity of conditioned medium on Raji or OKT3 cells: lost its activity

## CC(Cc1ccc(O)c(O)c1)C(C)Cc1ccc(O)c(O)c1 (centres unmarked) [NDGA, Nordihydroguaiaretic acid]
[4]
  LTB4 production: inhibits LTB4 production

## COc1cc2c(cc1OC)CN(C(=O)/C=C/c1c(-c3ccccc3)n(C)c3ncccc13)CC2 [SIS3]
[1]
  BAFF transcription and protein expression: significantly reduced
[2]
  proliferative activity of conditioned medium on Raji or OKT3 cells: lost its activity

## COc1cccc(-c2cc(=O)c3ccccc3o2)c1N [PD98059]
[1]
  BAFF transcription and protein expression: had fewer effects

— patent US20190111040A1, “IN VIVO AMELIORATION OF ENDOGENOUS ANTI-TUMOR AUTOANTIBODIES TARGETING SURFACE TUMOR ANTIGENS VIA LOW-DOSE P4N” (THE JOHNS HOPKINS UNIVERSITY, priority 2016, published 2019)
